Measurements taken from article PMC6689897, “Drugging an undruggable pocket on KRAS” (Proceedings of the National Academy of Sciences of the …, 2019).
Where “and” joins values, the source holds several entries; their conditions need not be identical. Equal values may be shown once. Read-outs that look alike come from different tables or passages of the source.

Assays:
Experiment in all cases: ITC
Format in all cases: binding
[1] = target: GCP-NRASwt (Homo sapiens, UniProt P01111, C118S); conditions: 25°C
Chain of GCP-NRASwt (P01111 1-172 C118S): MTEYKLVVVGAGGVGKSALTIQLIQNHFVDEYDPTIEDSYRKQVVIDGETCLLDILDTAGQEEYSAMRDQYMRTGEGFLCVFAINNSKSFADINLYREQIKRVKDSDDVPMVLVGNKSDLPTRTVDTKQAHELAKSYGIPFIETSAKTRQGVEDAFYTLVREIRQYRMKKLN
Method: (§1) 80 difference spectrum. Mixtures of four fragments (each at 250 µM) were incubated in 25
(§2) 82 a mixture of GCP-KRASG12D and GDP-KRASG12V (each 4 µM). Binders were identified
(§3) 83 by comparing pre-recorded reference spectra with the STD difference spectrum.
(§4) 84 Deconvolution and confirmation of primary FBS hits obtained from STD-NMR and
(§5) 85 MST was performed using 2D 1H/15N TROSY NMR experiments(2) collected on a
(§6) 86 Bruker Avance III 600 MHz spectrometer equipped with a 5 mm z-gradient TCI cryo-
(§7) 87 probe. Samples were prepared directly before data acquisition using a Tecan Freedom
(§8) 88 Evo pipetting system and delivered by a Bruker Sample Rail to the magnet. Each sample
(§9) 89 contained either 50 µM 15N labeled GDP-KRASG12D or GCP-KRASG12D in 25 mM Tris-
(§10) 90 d11, 100 mM NaCl, 2 mM MgCl2, 0.5 mM TCEP pH 7.4 and 8% (v/v) D2O. Proteins
(§11) 91 were incubated with 500 µM fragment in a 2.5 mm NMR tube at 298K and 1%
(§12) 92 d6DMSO. Spectra were recorded with 32 transients and 64 data points in the indirect
(§13) 93 dimension. Processing and analysis were accomplished with Topspin 3.0 (Bruker
(§14) 94 BioSpin). Binders were identified by manual comparison of spectra in the presence of a
(§15) 95 fragment and the respective reference spectrum. All confirmed binders to 15N labeled
(§16) 96 GDP-KRASG12D show also chemical shift perturbations in the presence of 15N labeled
(§17) 97 GDP-KRASG12V and are therefore non-selective.
(§18) 98 Measurement of dissociation constants KD for the compounds synthesized. NMR
(§19) 99 was initially the only method that could provide K Ds for the weakly binding molecules to
(§20) 100 support compound optimization. 1H/15N SoFast HMQC experiments(3) were recorded in
(§21) 101 3mm NMR tubes (170µL filling) at a protein concentration of 70-100µM. Spectra were
(§22) 102 recorded on a Avance III 700MHz spectrometer equipped with a cryogenically cooled
(§23) 103 5mm TCI probe and 48 scans, 128 f1 increments and 2k data points in f2. Total
(§24) 104 acquisition time was 22 minutes. 4 – 6 titration points were performed w ith individual
(§25) 105 samples for each titration point made from 50mM DMSO -d6 stock solutions. Total
(§26) 106 DMSO-d6 concentration was kept constant by backfilling every sample to a total of 4%
(§27) 107 DMSO. KDs were calculated from the differences in chemical shift induced by t he small
(§28) 108 molecules upon interacting with the protein. Average chemical shifts from the 1H and 15N
(§29) 109 dimension were calculated according to the following equation:
(§30) 110 ∆δobs = √[δH2 + (α ∙δN)2] with α set to 0.14
(§31) 111 The Δδobs values at the respective ligand concentrations and the total concentration
(§32) 112 of protein allow a fit to the KD value of the ligand as long as it is binding under fast
(§33) 113 exchange conditions as was the case for most of the compounds tested.(4) Usually Δδobs
(§34) 115 following equation was used to determine the individual KDs:
(§35) 116 ∆δobs = ∆δmax [([P]t + [L]t + KD) − [([P]t + [L]t + KD)2 − 4([P]t[L]t)]1/2]/2[P]t
(§36) 119 Calorimetric experiments were performed on a Microcal PEAQ-ITC calorimeter
(§37) 120 (MicroCalTM, LLC Northampton, MA). Protein solutions were measured in 20 mM
(§38) 121 HEPES, 150 mM NaCl, 3% DMSO, pH 7.5. All measurements were carried out at 25°C.
(§39) 122 Titrations were performed in inverse mode. The cell was loaded with compound solutions
(§40) 123 in the range of 10 to 100 µM. All injections were performed using an initial injection of
(§41) 124 0.5 μL followed by 19 injections of 2 μL of protein in the range of 130-500 µM. The data
(§42) 125 were analyzed with the MicroCal PEAQ-ITC analysis software package. The first data
(§43) 126 point was excluded from the analysis. Thermodynamic parameters were calculated (ΔG =
(§44) 127 ΔH - TΔS = -RTlnKB, where ΔG, ΔH and ΔS are the changes in free energy, enthalpy and
(§45) 128 entropy of binding, respectively).
(§46) 130 Protein purification, nucleotide exchange and crystallization
(§47) 131 The KRAS construct, based on uniprot identifier P01116 -2 (KRAS4-B) amino acids
(§48) 134 G12V) were expressed with an N-terminal His6-tag followed by a TEV (tobacco etch

[2] = target: GDP-KRASwt (Homo sapiens, UniProt P01116); conditions: 25°C
Chain of GDP-KRASwt (P01116 1-169 isoform P01116-2): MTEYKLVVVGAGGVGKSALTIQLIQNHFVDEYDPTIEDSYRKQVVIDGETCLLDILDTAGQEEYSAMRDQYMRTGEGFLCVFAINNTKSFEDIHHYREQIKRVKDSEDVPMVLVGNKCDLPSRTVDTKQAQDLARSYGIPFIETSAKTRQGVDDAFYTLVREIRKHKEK
Method: as §1, §2, §3, §4, §5, §6, §7, §8, §9, §10, §11, §12, §13, §14, §15, §16, §17, §18, §19, §20, §21, §22, §23, §24, §25, §26, §27, §28, §29, §30, §31, §32, §33, §34, §35, §36, §37, §38, §39, §40, §41, §42, §43, §44, §45, §46, §47, §48

[3] = target: GDP-KRASG12D (Homo sapiens, UniProt P01116, G12D); conditions: 25°C
Chain of GDP-KRASG12D (P01116 1-169 isoform P01116-2 G12D): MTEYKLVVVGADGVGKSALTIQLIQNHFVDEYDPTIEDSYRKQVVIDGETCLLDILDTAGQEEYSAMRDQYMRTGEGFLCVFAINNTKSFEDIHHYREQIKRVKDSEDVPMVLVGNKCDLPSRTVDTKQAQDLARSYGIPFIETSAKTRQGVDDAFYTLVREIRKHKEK
Method: as §1, §2, §3, §4, §5, §6, §7, §8, §9, §10, §11, §12, §13, §14, §15, §16, §17, §18, §19, §20, §21, §22, §23, §24, §25, §26, §27, §28, §29, §30, §31, §32, §33, §34, §35, §36, §37, §38, §39, §40, §41, §42, §43, §44, §45, §46, §47, §48

[4] = target: GCP-KRASG12D (Homo sapiens, UniProt P01116, G12D)
Chain of GCP-KRASG12D (P01116 1-169 isoform P01116-2 G12D): as above
Method: as §1, §2, §3, §4, §5, §6, §7, §8, §9, §10, §11, §12, §13, §14, §15, §16, §17, §18, §19, §20, §21, §22, §23, §24, §25, §26, §27, §28, §29, §30, §31, §32, §33, §34, §35, §36, §37, §38, §39, §40, §41, §42, §43, §44, §45, §46, §47, §48

[5] = target: GDP-HRASwt (Homo sapiens, UniProt P01112); conditions: 25°C
Chain of GDP-HRASwt (P01112 1-166): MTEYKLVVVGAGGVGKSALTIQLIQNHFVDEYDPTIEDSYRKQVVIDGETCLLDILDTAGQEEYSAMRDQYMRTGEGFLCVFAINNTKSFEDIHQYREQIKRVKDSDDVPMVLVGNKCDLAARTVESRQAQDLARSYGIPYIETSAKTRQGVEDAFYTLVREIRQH
Method: as §1, §2, §3, §4, §5, §6, §7, §8, §9, §10, §11, §12, §13, §14, §15, §16, §17, §18, §19, §20, §21, §22, §23, §24, §25, §26, §27, §28, §29, §30, §31, §32, §33, §34, §35, §36, §37, §38, §39, §40, §41, §42, §43, §44, §45, §46, §47, §48

[6] = target: GCP-HRASwt (Homo sapiens, UniProt P01112); conditions: 25°C
Chain of GCP-HRASwt (P01112 1-166): as above
Method: as §1, §2, §3, §4, §5, §6, §7, §8, §9, §10, §11, §12, §13, §14, §15, §16, §17, §18, §19, §20, §21, §22, §23, §24, §25, §26, §27, §28, §29, §30, §31, §32, §33, §34, §35, §36, §37, §38, §39, §40, §41, §42, §43, §44, §45, §46, §47, §48

[7] = target: GDP-NRASwt (Homo sapiens, UniProt P01111, C118S); conditions: for Kd: 25°C
Chain of GDP-NRASwt (P01111 1-172 C118S): as the sequence (P01111 1-172 C118S) above
Method: as §1, §2, §3, §4, §5, §6, §7, §8, §9, §10, §11, §12, §13, §14, §15, §16, §17, §18, §19, §20, §21, §22, §23, §24, §25, §26, §27, §28, §29, §30, §31, §32, §33, §34, §35, §36, §37, §38, §39, §40, §41, §42, §43, §44, §45, §46, §47, §48

[8] = target: GCP-KRASwt (Homo sapiens, UniProt P01116); conditions: for Kd: 25°C
Chain of GCP-KRASwt (P01116 1-169 isoform P01116-2): as the sequence (P01116 1-169 isoform P01116-2) above
Method: as §1, §2, §3, §4, §5, §6, §7, §8, §9, §10, §11, §12, §13, §14, §15, §16, §17, §18, §19, §20, §21, §22, §23, §24, §25, §26, §27, §28, §29, §30, §31, §32, §33, §34, §35, §36, §37, §38, §39, §40, §41, §42, §43, §44, §45, §46, §47, §48

[9] = 25°C, read-out: KD(ITC) GCP-KRASG12D

SMILES	Kd [1] [µM]	Kd [2] [µM]	Kd [3] [µM]	Kd [4, 9]	Kd ([4]; read-out: KD GTP-KRAS^G12D as measured by ITC) [µM]	Kd [5] [µM]	Kd [6] [µM]	selectivity window to inactive NRAS^wt [7]	Kd [7] [µM]	selectivity of binding to GCP-KRAS^wt (active KRAS^wt) [8]	Kd [8] [µM]
Cn1cnc(Cn2ccc3ccc(CNCc4[nH]c5ccccc5c4[C@H]4NC(=O)c5ccc(O)cc54)cc32)c1 [Compound 1]	1.3	1.1	2	0.74 µM	0.75	2.5	0.57	5- to 10 fold	8.3	5- to 10 fold and 10 fold	7.5
CN(C)Cc1[nH]c2ccccc2c1[C@H]1NC(=O)c2ccc(O)cc21 [Compound 18]	33	15	29	22 µM and 20 µM and 20.4 µM		54	6.7		33		49
